Experimental data published in ChEMBL document CHEMBL2331418, “Synthesis of tartaric acid analogues of FR258900 and their evaluation as glycogen phosphorylase inhibitors” (Bioorg Med Chem Lett, 2013).

Assays:
[1] = Competitive inhibition of rabbit muscle glycogen phosphorylase b using constant concentration of glucose-1-phosphate, glycogen and varying concentration of AMP as substrate; format: tissue-based, Oryctolagus cuniculus, Muscle tissue
[2] = Non-competitive inhibition of rabbit muscle glycogen phosphorylase b using constant concentration of AMP, glycogen and varying concentration of glucose-1-phosphate as substrate; format: tissue-based, Oryctolagus cuniculus, Muscle tissue
[3] = target: T1, Glycogen phosphorylase, muscle form (Oryctolagus cuniculus, UniProt P00489); assay: Inhibition of rabbit muscle glycogen phosphorylase
T1 sequence (P00489 whole entry): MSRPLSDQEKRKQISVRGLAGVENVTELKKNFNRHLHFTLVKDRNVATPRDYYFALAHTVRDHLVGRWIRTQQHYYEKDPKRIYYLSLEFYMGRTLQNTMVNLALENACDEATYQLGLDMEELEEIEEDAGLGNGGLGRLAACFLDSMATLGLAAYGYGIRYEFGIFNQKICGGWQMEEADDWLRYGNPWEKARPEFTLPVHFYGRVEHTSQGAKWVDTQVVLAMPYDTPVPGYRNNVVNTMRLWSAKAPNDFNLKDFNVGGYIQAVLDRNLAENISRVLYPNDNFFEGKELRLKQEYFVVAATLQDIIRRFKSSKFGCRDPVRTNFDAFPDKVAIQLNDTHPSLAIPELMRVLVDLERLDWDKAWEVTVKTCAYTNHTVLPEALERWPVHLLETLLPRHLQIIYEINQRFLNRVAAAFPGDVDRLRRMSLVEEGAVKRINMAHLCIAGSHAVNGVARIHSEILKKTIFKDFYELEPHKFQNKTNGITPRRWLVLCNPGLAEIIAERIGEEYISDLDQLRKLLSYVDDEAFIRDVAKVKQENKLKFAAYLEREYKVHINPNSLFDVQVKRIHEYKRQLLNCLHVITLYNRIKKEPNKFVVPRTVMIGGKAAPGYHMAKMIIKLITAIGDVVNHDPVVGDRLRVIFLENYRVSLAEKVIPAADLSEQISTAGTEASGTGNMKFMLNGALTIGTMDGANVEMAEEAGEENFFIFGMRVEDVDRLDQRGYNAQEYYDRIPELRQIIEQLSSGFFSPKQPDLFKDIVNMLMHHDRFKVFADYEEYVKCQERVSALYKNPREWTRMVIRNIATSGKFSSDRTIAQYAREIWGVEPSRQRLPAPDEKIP

[4] = target: T2, Glycogen phosphorylase, liver form (Homo sapiens, UniProt P06737); assay: Inhibition of human liver glycogen phosphorylase
T2 sequence (P06737 whole entry): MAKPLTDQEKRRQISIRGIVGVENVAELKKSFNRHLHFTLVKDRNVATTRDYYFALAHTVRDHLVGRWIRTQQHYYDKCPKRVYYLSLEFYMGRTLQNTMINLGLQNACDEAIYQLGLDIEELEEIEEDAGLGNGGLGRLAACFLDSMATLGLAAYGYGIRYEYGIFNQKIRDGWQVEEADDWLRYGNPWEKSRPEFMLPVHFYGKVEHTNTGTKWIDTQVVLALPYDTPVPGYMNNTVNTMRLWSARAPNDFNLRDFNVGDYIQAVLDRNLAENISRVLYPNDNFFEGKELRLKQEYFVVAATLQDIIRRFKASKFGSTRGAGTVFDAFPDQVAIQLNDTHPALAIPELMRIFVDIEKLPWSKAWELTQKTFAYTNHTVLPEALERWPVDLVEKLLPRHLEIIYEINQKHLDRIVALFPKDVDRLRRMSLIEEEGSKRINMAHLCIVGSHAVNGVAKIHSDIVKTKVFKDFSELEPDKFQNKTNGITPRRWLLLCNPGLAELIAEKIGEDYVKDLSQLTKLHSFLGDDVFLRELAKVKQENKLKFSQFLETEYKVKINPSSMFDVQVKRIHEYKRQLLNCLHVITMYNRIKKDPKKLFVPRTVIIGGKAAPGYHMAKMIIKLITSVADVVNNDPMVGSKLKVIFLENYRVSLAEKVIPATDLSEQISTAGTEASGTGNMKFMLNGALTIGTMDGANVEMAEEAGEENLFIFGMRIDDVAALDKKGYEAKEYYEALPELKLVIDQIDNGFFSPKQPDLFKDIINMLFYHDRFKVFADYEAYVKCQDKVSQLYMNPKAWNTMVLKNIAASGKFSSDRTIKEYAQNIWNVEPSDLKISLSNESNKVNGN

Row | SMILES | Ki [1] | Ki [2] | Ki [3] | IC50 [4]
1 | O=C(/C=C/c1ccc(O)cc1)O[C@H](C(=O)O)[C@H](OC(=O)/C=C/c1ccc(O)cc1)C(=O)O | 26.4 µM | 109 µM |  | 
2 | O=C(O)C[C@H](OC(=O)/C=C/c1ccc(O)cc1)[C@@H](OC(=O)/C=C/c1ccc(O)cc1)C(=O)O | 0.2 µM | 5.47 µM | 0.46 µM | 2.5 µM
3 | O=C(/C=C/c1ccc(O)cc1)O[C@H](C(=O)O)[C@@H](OC(=O)/C=C/c1ccc(O)cc1)C(=O)O | 5.68 µM | 71.4 µM |  | 
4 | O=C(/C=C/c1ccc(O)cc1)O[C@@H](C(=O)O)[C@@H](OC(=O)/C=C/c1ccc(O)cc1)C(=O)O | 11.3 µM | 300 µM |  | 
